# Measured values reported in publication PMC12396240 (Drug Design, Development and Therapy, 2025).
# “Also recorded” adds a separate entry of the source.
# Columns and labels:
# [1] = Pharmacokinetics of apixaban in rats, alone and with palbociclib; type: in vivo, Sprague-Dawley rats
# P-gp (Abcb1a) = experiment: qRT-PCR mRNA expression in rat liver and intestine after palbociclib for 8 days; type: in vivo; settings: palbociclib for eight consecutive days vs blank control
# [2] = Pharmacokinetics of palbociclib in rats, alone and with apixaban or rivaroxaban; type: in vivo, Sprague-Dawley rats
# BCRP (Abcg2) = experiment: qRT-PCR mRNA expression in rat liver and intestine after palbociclib for 8 days; type: in vivo; settings: palbociclib for eight consecutive days vs blank control
# [3] = Pharmacokinetics of rivaroxaban in rats, alone and with palbociclib; type: in vivo, Sprague-Dawley rats
# [4] = apixaban 0.25 mg/kg alongside palbociclib, rats, no statistical significance
# [5] = apixaban 0.5 mg/kg with simultaneous palbociclib vs apixaban-only group, rats
# [6] = apixaban 0.5 mg/kg with simultaneous palbociclib vs control group, rats
# [7] = palbociclib co-administered with apixaban vs palbociclib alone, rats
# [8] = palbociclib co-administered with rivaroxaban vs palbociclib alone, rats
# [9] = SD rats, oral, rivaroxaban 2 mg/kg alone, geometric mean (GSD) (geometric CV%)
# [10] = male, Sprague-Dawley, rat, plasma, po, 2 mg/kg
# [11] = rivaroxaban 1 mg/kg + multiple doses of palbociclib compared with rivaroxaban 2 mg/kg, rats
smiles,measurement,setting,value
"COc1ccc(-n2nc(C(N)=O)c3c2C(=O)N(c2ccc(N4CCCCC4=O)cc2)CC3)cc1 [Apixaban, apixaban]",CLz,"[1]; SD rats, oral, apixaban 0.5 mg/kg alone, geometric mean (GSD) (geometric CV%)",0.86(GSD 1.49) (110.3%) L/h/kg
same,"differences for CLz/F, Tmax, t1/2, Vz/F, MRT0-t and MRT0-∞ of apixaban","[1]; apixaban 0.25 mg/kg alongside palbociclib, rats",no significant differences
same,increase in AUC0-t of apixaban,[1]; [4],43.35%
same,increase in AUC0-∞ of apixaban,[1]; [4],43.49%
same,increase in Cmax of apixaban,[1]; [4],45.03%
same,increase in AUC0-t of apixaban,[1]; [5],258.36%
same,increase in AUC0-∞ of apixaban,[1]; [5],256.64%
same,increase in Cmax of apixaban,[1]; [5],243.61%
same,decrease in apparent volume of distribution Vz/F of apixaban,[1]; [6],73.73%
same,decrease in clearance CLz/F of apixaban,[1]; [6],72.53%
same,effect on pharmacokinetic parameters of apixaban,"[1]; apixaban and palbociclib given 12 hours apart, rats",no significant pharmacokinetic changes; also recorded: not affected
same,AUC(0-t),"[1]; male, Sprague-Dawley, rat, plasma, po, 0.5 mg/kg, AUC0-t, SD rats, apixaban 0.5 mg/kg alone, geometric mean (GSD) (geometric CV%)",579 ng·h/mL
same,AUC(0-inf),"[1]; male, Sprague-Dawley, rat, plasma, po, 0.5 mg/kg, AUC0-∞, SD rats, apixaban 0.5 mg/kg alone, geometric mean (GSD) (geometric CV%)",583 ng·h/mL
same,Cmax,"[1]; male, Sprague-Dawley, rat, plasma, po, 0.5 mg/kg, Cmax, SD rats, apixaban 0.5 mg/kg alone, geometric mean (GSD) (geometric CV%)",243 ng/mL
same,MRT last,"[1]; male, Sprague-Dawley, rat, plasma, po, 0.5 mg/kg, MRT0-t, SD rats, apixaban 0.5 mg/kg alone, geometric mean (GSD) (geometric CV%)",1.83 h
same,MRT inf,"[1]; male, Sprague-Dawley, rat, plasma, po, 0.5 mg/kg, MRT0-∞, SD rats, apixaban 0.5 mg/kg alone, geometric mean (GSD) (geometric CV%)",1.92 h
same,Tmax,"[1]; male, Sprague-Dawley, rat, plasma, po, 0.5 mg/kg, Tmax, SD rats, apixaban 0.5 mg/kg alone, geometric mean (GSD) (geometric CV%)",0.53 h
"CC(=O)c1c(C)c2cnc(Nc3ccc(N4CCNCC4)cn3)nc2n(C2CCCC2)c1=O [Palbociclib, palbociclib]",downregulation of P-gp mRNA expression,P-gp (Abcb1a); intestine,20.17%
same,effect on P-gp mRNA expression,P-gp (Abcb1a); liver,no significant effect
same,AUC(0-t),"[2]; male, Sprague-Dawley, rat, plasma, po, 11 mg/kg, AUC0-t, SD rats, palbociclib 11 mg/kg alone, geometric mean (GSD) (geometric CV%)",4340 ng·h/mL
same,AUC(0-inf),"[2]; male, Sprague-Dawley, rat, plasma, po, 11 mg/kg, AUC0-∞, SD rats, palbociclib 11 mg/kg alone, geometric mean (GSD) (geometric CV%)",4350 ng·h/mL
same,Cmax,"[2]; male, Sprague-Dawley, rat, plasma, po, 11 mg/kg, Cmax, SD rats, palbociclib 11 mg/kg alone, geometric mean (GSD) (geometric CV%)",469 ng/mL
same,MRT last,"[2]; male, Sprague-Dawley, rat, plasma, po, 11 mg/kg, MRT0-t, SD rats, palbociclib 11 mg/kg alone, geometric mean (GSD) (geometric CV%)",7.33 h
same,MRT inf,"[2]; male, Sprague-Dawley, rat, plasma, po, 11 mg/kg, MRT0-∞, SD rats, palbociclib 11 mg/kg alone, geometric mean (GSD) (geometric CV%)",7.39 h
same,Tmax,"[2]; male, Sprague-Dawley, rat, plasma, po, 11 mg/kg, Tmax, SD rats, palbociclib 11 mg/kg alone, geometric mean (GSD) (geometric CV%)",2.83 h
same,half-life,"[2]; male, Sprague-Dawley, rat, plasma, po, 11 mg/kg, t1/2, SD rats, palbociclib 11 mg/kg alone, geometric mean (GSD) (geometric CV%)",3.99 h
same,increase in AUC0-t of palbociclib,[2]; [7],24.75%
same,increase in AUC0-∞ of palbociclib,[2]; [7],24.83%
same,increase in Cmax of palbociclib,[2]; [7],49.30%
same,increase in AUC0-t of palbociclib,[2]; [8],32.94%
same,increase in AUC0-∞ of palbociclib,[2]; [8],33.13%
same,effect on BCRP mRNA expression,BCRP (Abcg2); intestine,no significant inhibition
same,decrease of BCRP mRNA expression,BCRP (Abcg2); liver,31.66%
"O=C(NC[C@H]1CN(c2ccc(N3CCOCC3=O)cc2)C(=O)O1)c1ccc(Cl)s1 [Rivaroxaban, rivaroxaban]",CLz,[3]; [9],0.69(GSD 1.20) (65.6%) L/h/kg
same,Vz,[3]; [9],2.13(GSD 1.55) (118.4%) L/kg
same,MRT inf,[3]; [10],3.67 h
same,MRT last,[3]; [10],3.32 h
same,AUC(0-t),"[3]; male, Sprague-Dawley, rat, plasma, po, 2 mg/kg, AUC0-t, SD rats, rivaroxaban 2 mg/kg alone, geometric mean (GSD) (geometric CV%)",691 ng·h/mL
same,AUC(0-inf),"[3]; male, Sprague-Dawley, rat, plasma, po, 2 mg/kg, AUC0-∞, SD rats, rivaroxaban 2 mg/kg alone, geometric mean (GSD) (geometric CV%)",722 ng·h/mL
same,Tmax,"[3]; male, Sprague-Dawley, rat, plasma, po, 2 mg/kg, Tmax, SD rats, rivaroxaban 2 mg/kg alone, geometric mean (GSD) (geometric CV%)",1.02 h
same,decrease in MRT0-t of rivaroxaban,[3]; [11],27.82%
same,decrease in MRT0-∞ of rivaroxaban,[3]; [11],35.43%
same,decrease in apparent volume of distribution Vz/F of rivaroxaban,[3]; [11],77.46%
same,decrease in clearance CLz/F of rivaroxaban,[3]; [11],60.87%
same,differences for Tmax and t1/2 of rivaroxaban,[3]; [11],no significant differences
same,increase in AUC0-t of rivaroxaban,[3]; [11],161.86%
same,increase in AUC0-∞ of rivaroxaban,[3]; [11],150.93%
same,increase in Cmax of rivaroxaban,[3]; [11],243.63%
same,effect on pharmacokinetic parameters of rivaroxaban,"[3]; rivaroxaban and palbociclib given 12 hours apart, rats",no significant pharmacokinetic changes; also recorded: not affected
